# Entries after “also recorded” stand apart in the source; their conditions may differ.
# What was measured:
# [1] = system: neurons; details: 24 hours; cited from earlier work
# [2] = system: caspase-3 activation in neurons; details: cited from earlier work
# [3] = system: caspase-3 activation in tumor cells; details: cited from earlier work
# [4] = target: Sigma-2 receptor (Rattus norvegicus (Rat), UniProt Q5U3Y7); experiment: Sigma-2 receptor competitive radioligand binding assay; details: read-out: Sigma-2 Receptor Affinity, Ki
# Sigma-2 receptor, sequence (Q5U3Y7 whole entry): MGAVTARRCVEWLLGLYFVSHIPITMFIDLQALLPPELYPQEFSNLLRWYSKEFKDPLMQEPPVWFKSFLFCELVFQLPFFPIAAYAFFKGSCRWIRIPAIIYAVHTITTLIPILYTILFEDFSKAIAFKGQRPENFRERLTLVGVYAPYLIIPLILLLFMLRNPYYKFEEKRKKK
# Experimental: Radioligand binding assays for Sigma-1 receptors and Sigma-2 receptors were carried out by a commercial contract research organization. For Sigma-1 binding, various concentrations of test compounds from 100 μM to 1 nM were used to displace 8 nM [^3H](+)pentazocine from endogenous receptors on Jurkat cell membranes (Ganapathy M E et al. 1991, J Pharmacol. Exp. Ther. 289:251-260). 10 μM Haloperidol was used to define non-specific binding. For Sigma-2 receptors various concentrations of test compounds from 100 μM to 1 nM were used to displace 5 nM [^3H] […] (Bowen W D, et al. 1993, Mol. Neuropharmcol 3:117-126). 10 μM Haloperidol was used to define non-specific binding. […] Radioactivity on the dried filter discs was measured using a liquid scintillation analyzer (Tri-Carb 2900TR; PerkinElmer Life and Analytical Sciences). The displacement curves were plotted and the Ki values of the test ligands for the receptor subtypes were determined using GraphPad Prism (GraphPad Software Inc., San Diego, Calif.). The percentage specific binding was determined by dividing the difference between total bound (disintegrations per minute) and nonspecific bound (disintegrations per minute) by the total bound (disintegrations per minute).
# The affinity of candidate sigma-2 ligand compounds at sigma-1 and sigma-2 receptors was also determined by displacement of different known labeled sigma-2 or sigma-1 ligands. […]
# [5] = Mouse liver microsome (MLM) stability; format: in vitro ADME
# Experimental: A first pharmacokinetic study was performed in microsomes of mice mouse liver microsomes, MLM) by a commercial contract research organization. The studies were performed according to Obach, R. S et al. (1997) J. Pharmacol. Exp. Ther., 283: 46-58, which is incorporated herein by reference.
# [6] = system: MDA-MB-435 or MDA-MB231 or SKOV-3 cells; experiment: Tumor cell viability (MTS) assay; format: cell-based
# Experimental: The cytotoxicity of test compounds is determined using the CellTiter96 Aqueous One Solution Assay (Promega, Madison, Wis.). Briefly, MDA-MB-435 or MDA-MB231 or SKOV-3 cells were seeded in a 96-well plate at a density of 2000 cells/well on the day prior to treatment with sigma-2 receptor selective ligands. […] The plate is read at 490 nm in a Victor3 plate reader (PerkinElmer Life and Analytical Sciences, Shelton, Conn.). The EC^50 value, defined as the concentration of the sigma ligand required to inhibit cell viability by 50% relative to untreated cells, is determined from the dose response curve for each cell line. Siramesine is accepted as an agonist.
Compound,"Mouse liver microsomes, MLM t½ [5] [min]",further results
"COc1cc2c(cc1OC)CN(CCCCNC(=O)c1cc(C)ccc1OC)CC2 [RHM-1, N-[4-(3,4-dihydro-6,7-dimethoxyisoquinolin-2(1H)-yl)butyl]-2-methoxy-5-methylbenzamide]",–,nuclear morphology / nuclear intensity compared to vehicle [1]: do not decrease nuclear intensity; block of caspase-3 activation by agonist SV-119 [2]: not able to block activation; caspase-3 activation [2]: do not induce caspase-3 activity; caspase-3 activation [3]: do not induce caspase-3 activity; inhibition of caspase-3 activation [3]: inhibits the activation
CC(C)(C)Oc1cc(CCC(C)(C)N2Cc3cccc(C(=O)O)c3C2)ccc1O [compound 75],–,Ki [4]: > 10 µM
Fc1ccc(-n2cc(CCCCN3CCC4(CC3)OCc3ccccc34)c3ccccc32)cc1 [Siramesine],–,nuclear morphology / nuclear intensity compared to vehicle [1]: cause significant abnormal nuclear morphology; caspase-3 activation [2]: activate caspase-3; caspase-3 activation [3]: activate caspase-3; also recorded: induces caspase-3 activity
CC(C)(CCc1ccc(O)c(OC(F)(F)F)c1)N1Cc2c(F)ccc(F)c2C1 [compound 55],34,–
COc1cc(CCC(C)N2Cc3ccc4ccccc4c3C2)ccc1O.Cl (centres unmarked) [compound 17],10,–
COc1cc2c(cc1OC)CN([C@H](C)CCc1ccc(Cl)c(Cl)c1)C2 [compound 11],61,–
CC(C)(CCc1ccc(F)cc1)N1Cc2cc3c(cc2C1)OCO3 [compound 36],47,–
COc1cc(CC[C@@H](C)N2Cc3cc4c(cc3C2)OCO4)ccc1O [compound 6],20,–
CC(C)(CCc1ccc(O)c(OC(F)(F)F)c1)N1Cc2cccc(C(=O)N3CCOCC3)c2C1 [compound 94],14,–
CC(C)Oc1cc(CCC(C)(C)N2Cc3ccc(S(C)(=O)=O)cc3C2)ccc1O [compound 70],79,–
COC[C@H](CCc1ccc(Cl)c(Cl)c1)N1Cc2ccc(F)cc2C1 [compound 46],5,–
CC(C)COc1cc(CCC(C)(C)N2Cc3cccc(C(=O)N4CCN(C)CC4)c3C2)ccc1O [compound 91],6,–
COc1ccc(C)cc1NC(=O)OC1C[C@H]2CCC[C@@H](C1)N2CCCCCCN (some centres unmarked) [SV-119],–,"Action [6]: Full agonist (If the EC50s of a sigma-2 ligand test compound is less than 2 fold of EC50 of siramesine, this sigma-2 ligand test compound is considered as an agonist); nuclear morphology / nuclear intensity compared to vehicle [1]: cause significant abnormal nuclear morphology; caspase-3 activation [2]: activate caspase-3; caspase-3 activation [3]: activate caspase-3"
C[C@H](CCc1ccc(Cl)c(Cl)c1)N1Cc2cc3c(cc2C1)OCO3 [compound 10],8,–
CC(C)Oc1ccc(CCC(C)(C)N2Cc3ccc(F)cc3C2)cc1OC(C)C [compound 42],14,–
COc1cc2c(cc1OC)CN(C(C)(C)CCc1ccc(F)cc1)C2 [compound 34],46,–
CC(C)(CCc1ccc(F)cc1)N1Cc2cccc(F)c2C1 [compound 33],9,–
COc1cc(CC[C@@H](C)N2Cc3cc(Cl)c(Cl)cc3C2)ccc1O [compound 3],21,–
CC(C)Oc1cc(CCC(C)(C)N2Cc3cc4c(cc3C2)OCO4)ccc1O [compound 29],6,–
CC(C)Oc1cc(CC[C@@H](C)N2Cc3ccc(F)cc3C2)ccc1O [compound 37],5,–
